The source of these data is patent US11541049B2, “Tetrahydroisoquinoline derivatives, preparation process and use thereof” (SICHUAN KELUN-BIOTECH BIOPHARMACEUTICAL CO., LTD., priority 2018, dated 2023).

Each structure is given as a SMILES string.

The nature of series [1]: Pharmacokinetics study in male SD rats, intravenous injection. The format is in vivo. To be noted: male, SD, rat, plasma, rats, 5 mg/kg. The procedure: Pharmacokinetics characteristics were examined by administering compound of the present disclosure and the reference compound (BMS-962212) to male SD rats through intravenous injection (IV). Blood was collected at various time points after administration. The blood was anticoagulated with EDTA-K2. Plasma samples were obtained by centrifugation within 30 min after blood collection, and retained at −80° C. The plasma samples were processed to precipitate the proteins and then analyzed by LC-MS/MS.
(§1) The pharmacokinetic parameters were calculated using WinNonlin 6.3 software by employing a non-compartmental model.

A short description of series [2]: Pharmacokinetics study in male rabbits, intravenous injection. The class given is in vivo. As to conditions: male, rabbit, plasma, 1 mg/kg. Here is the method:
Pharmacokinetics properties were examined by administering compound of the present disclosure and the reference compound (BMS-962212) to male rabbits through intravenous injection (IV). Blood was collected at various time points after administration. The blood was anticoagulated with EDTA-K2. Plasma samples were obtained by centrifugation, and retained at −80° C. The plasma samples were processed to precipitate the proteins and then analyzed by LC-MS/MS.
as §1

Series [3] can be described thus: Pharmacokinetics study in Beagle dogs, intravenous injection. The class given is in vivo, Beagle dog. As to conditions: dog, plasma, 0.5 mg/kg. The procedure:
Pharmacokinetics properties were examined by administering compound of the present disclosure and the reference compound (BMS-962212) to Beagle dog through intravenous injection (IV). Blood was collected at various time points after administration. The blood was anticoagulated with EDTA-K2. Plasma samples were obtained by centrifugation, and retained at −80° C. The plasma samples were processed to precipitate the proteins and then analyzed by LC-MS/MS.
as §1

The nature of series [4]: Repeated dose toxicity study in SD rats, intravenous infusion, daily for 14 days. The format is in vivo. To be noted: rat, in vivo, daily for 14 days, SD rats, read-out: No-observed-adverse-effect level (NOAEL). The procedure:
(§2) The administration was repeated daily for 14 days, while clinical observation, body weight and food intake were recorded. […] Observation by gross anatomy and examination of histopathology were also conducted.

Series [5] deals with SD rats. Described as above. The class given is in vivo. To be noted: 60 mg/kg. The procedure: as §2
The nature of series [6]: Single dose toxicity study in SD rats, intravenous infusion. To be noted: SD, rat, in vivo, iv.
Method: (§3) The clinical observation was carried out for 7 days after a single dose, and the body weight of the animals were measured. On the 8th day, blood samples were taken after anesthesia for detection of hematology, blood biochemistry, coagulation and other indicators. Observation was also conducted by gross anatomy.
The test system of series [7] is SD rats. The description is as above. As to conditions: intravenous infusion (2 ml/min).
Method: as §3
Series [8] addresses human coagulation factor XIa (Homo sapiens (Human), UniProt P03951). Description: Inhibition of coagulation factor XIa (fluorogenic substrate, enzyme kinetic mode). The format is biochemical. The procedure: The following procedures can be used to determine the in vitro inhibition of human coagulation factor XIa by the compound of the present disclosure, as indicated by IC50.
Enzyme: human coagulation factor XIa; manufacturer: Haemtech;
Substrate: Boc-Ile-Glu-Gly-Arg-AMC Acetate salt; manufacturer: Bachem;
Reaction buffer: 50 mM HEPES, 145 mM NaCl, 5 mM KCl, 0.1% BSA, pH 7.4;
The test compounds were dissolved in reaction buffer at different concentrations. 4 μl of coagulation factor XIa and 4 μl of the test compound were added to a 384 well plate, incubated at room temperature for 10 minutes after mixed thoroughly, and then 4 μl of substrate was added to initiate the reaction. For reading fluorescence signal value, enzyme kinetic mode was used. The wavelength of excitation light was selected to be 380 nm, and the wavelength of emission light was selected to be 460 nm. Read once per 30 seconds, and continuously read 20 cycles. Linear regression analysis of signal value-time was performed during the linear reaction period, and the slope was the reaction rate, and the enzyme activity inhibition rate was calculated according to the following formula. The half inhibitory concentration IC50 values of the compound were fitted using GraphPad Prism 5 software, and results are shown in Table 1. Inhibition rate %=(V0−Vi)/(V0−Vblank)×100.
In the formula: V0 is the reaction rate of the control well (using the same volume of reaction buffer without adding test compound), Vi is the reaction rate of test compound, Vblank is a blank well (using the same volume of reaction buffer without adding either enzyme or test compound).

Chain of human coagulation factor XIa (P03951 388-625): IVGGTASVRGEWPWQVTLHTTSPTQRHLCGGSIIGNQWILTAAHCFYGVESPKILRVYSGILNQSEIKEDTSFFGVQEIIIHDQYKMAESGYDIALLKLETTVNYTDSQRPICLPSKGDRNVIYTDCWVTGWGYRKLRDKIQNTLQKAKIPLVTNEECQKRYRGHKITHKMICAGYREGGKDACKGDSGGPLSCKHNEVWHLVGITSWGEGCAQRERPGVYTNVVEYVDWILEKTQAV
Chain of human coagulation factor XIa (P03951 19-387): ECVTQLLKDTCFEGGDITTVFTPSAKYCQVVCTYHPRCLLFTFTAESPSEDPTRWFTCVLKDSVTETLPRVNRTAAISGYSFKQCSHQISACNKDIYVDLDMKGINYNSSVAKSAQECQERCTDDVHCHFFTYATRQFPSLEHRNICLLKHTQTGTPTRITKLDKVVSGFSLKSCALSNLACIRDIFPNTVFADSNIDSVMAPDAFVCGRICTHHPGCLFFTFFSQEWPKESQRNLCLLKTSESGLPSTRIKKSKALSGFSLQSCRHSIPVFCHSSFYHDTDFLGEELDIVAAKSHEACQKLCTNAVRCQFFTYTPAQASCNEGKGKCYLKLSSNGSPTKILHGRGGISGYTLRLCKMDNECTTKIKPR

In the case of `CN1CCN(c2cccc3c2CCN(C(=O)/C=C/c2c(-n4cnnn4)ccc(Cl)c2F)[C@@H]3C(=O)Nc2ccc(C(=O)O)cc2)C(=O)C1` [BMS-962212, reference compound], in series [1], the AUC(0-inf) (as a rule, the area under the concentration-time curve extrapolated to infinity) was found to be 4090 ± 654 ng·h/mL; the AUC(0-t) (as a rule, exposure summed from dosing to a finite time, without extrapolation to infinity) was determined as 4090 ± 654 ng·h/mL; the highest level (Cmax) was 11100 ± 1850 ng/mL; the clearance (as a rule, the volume of plasma or blood freed of the substance per unit of time) came out at 20.7 ± 2.7 mL/min/kg. Besides, the half-life (commonly how long it takes for the measured level to halve) in series [1] is 11.4 ± 1.8 min. In addition, in series [2], the AUC(0-inf) came out at 484 ± 38 ng·h/mL; the AUC(0-t) was 476 ± 35 ng·h/mL; the Cmax (commonly the maximum level reached in the sampled fluid or tissue) worked out at 1470 ± 145 ng/mL; the Vd (in general, the apparent volume that relates the amount in the body to the concentration in plasma or blood) came to 1.28 ± 0.28 L/kg. In addition, in series [2], the clearance was determined as 34.6 ± 2.8 mL/min/kg and the half-life is 25.8 ± 6.6 min. Besides, in series [3], the AUC(0-inf) turned out to be 846 ± 80 ng·h/mL, the AUC(0-t) is 846 ± 80 ng·h/mL, the Cmax came to 1480 ± 40 ng/mL and the Vd was determined as 0.71 ± 0.04 L/kg. For the same compound, in series [3], the clearance is 9.91 ± 0.94 mL/min/kg and the half-life was 49.8 ± 3 min. Moreover, in series [4], the NOAEL – broadly, the highest tested level that showed no adverse finding – at 14 days is under 60 mg/kg. Also, in the series on SD rats [5] (daily), the “Repeated dose toxicity study in SD rats: females died (10th and 12th day of the administration)” value is given as “female animals. Two”. Besides, in the series on SD rats [5] (daily for 14 days, female animals), the “Repeated dose toxicity study in SD rats: body weight finding” value was “Significant weight loss”. Also, the MTD at 7 days in series [6] worked out at 70 mg/kg. The “Single dose toxicity study in SD rats: observation” value with SD rats [7] (50 mg/kg) is “No abnormality was”. Moreover, the “Single dose toxicity study in SD rats: observation” value in the series on SD rats [7] (70 mg/kg) was “obviously hypoactive”. Further, the “Single dose toxicity study in SD rats: observation” value with SD rats [7] (75 mg/kg) is “high mortality”. In addition, the “Single dose toxicity study in SD rats: observation” value with SD rats [7] (75 mg/kg, listed as Reference compound) was “Death of the animals”.

`CC(C)[C@H](N)C(=O)N1CC=C(c2cccc3c2CCN(C(=O)[C@H]2CC(c4cccc(Cl)c4F)=NO2)[C@@H]3C(=O)Nc2ccc(C(=O)O)cc2)CC1` [Example 1, 4-((S)-5-(1-((S)-2-amino-3-methylbutanoyl)-1,2,3,6-tetrahydropyridin-4-yl)-2-((R)-3-(3-chloro-2-fluorophenyl)-4,5-dihydroisoxazole-5-carbonyl)-1,2,3,4-tetrahydroisoquinoline-1-carboxamido)benzoic acid]: inhibition in series [8] was half-maximal at 330 ± 60 pM (IC50).

With `N[C@@H](CCC(=O)N1CC=C(c2cccc3c2CCN(C(=O)[C@H]2CC(c4cccc(Cl)c4F)=NO2)[C@@H]3C(=O)Nc2ccc(C(=O)O)cc2)CC1)C(=O)O` [Example 2, 4-((S)-5-(1-((S)-4-amino-4-carboxybutanoyl)-1,2,3,6-tetrahydropyridin-4-yl)-2-((R)-3-(3-chloro-2-fluorophenyl)-4,5-dihydroisoxazole-5-carbonyl)-1,2,3,4-tetrahydroisoquinoline-1-carboxamido)benzoic acid], in series [8], the IC50 (as a rule, the midpoint of a concentration-inhibition curve) was determined as 210 ± 20 pM.

For the compound `N[C@@H](CCC(=O)O)C(=O)N1CC=C(c2cccc3c2CCN(C(=O)[C@H]2CC(c4cccc(Cl)c4F)=NO2)[C@@H]3C(=O)Nc2ccc(C(=O)O)cc2)CC1` [Example 3, 4-((S)-5-(1-((S)-2-amino-4-carboxybutanoyl)-1,2,3,6-tetrahydropyridin-4-yl)-2-((R)-3-(3-chloro-2-fluorophenyl)-4,5-dihydroisoxazole-5-carbonyl)-1,2,3,4-tetrahydroisoquinoline-1-carboxamido)benzoic acid], 290 ± 40 pM corresponded to half-maximal inhibition in series [8] (IC50).

The compound `C[C@H](N)C(=O)N1CC=C(c2cccc3c2CCN(C(=O)[C@H]2CC(c4cccc(Cl)c4F)=NO2)[C@@H]3C(=O)Nc2ccc(C(=O)O)cc2)CC1` [Example 4, 4-((S)-5-(1-((S)-2-aminopropanoyl)-1,2,3,6-tetrahydropyridin-4-yl)-2-((R)-3-(3-chloro-2-fluorophenyl)-4,5-dihydroisoxazole-5-carbonyl)-1,2,3,4-tetrahydroisoquinoline-1-carboxamido)benzoic acid] displayed an IC50 in series [8] of 850 ± 30 pM.
